Results reported in ChEMBL document CHEMBL1201862, “PubChem BioAssay data set” (2004).
Calls of active or inactive are those of the source.

Legend:
[1] = biological target: Protein-tyrosine kinase 2-beta (Homo sapiens, UniProt Q14289);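 note: potency of inhibitors of PYK2 kinase phosphorylation of poly-GT substrate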
[2] = Luminescence Cell-Based Dose Confirmation HTS to Identify Activators of 5'UTR Stem-Loop Driven Alpha-Synuclein mRNA Translation in H4 Neuroglioblastoma Cells. [Related pubchem assays: 1829 (Project Summary), 1814 (Primary HTS)]; format: functional
[3] = Luminescence Cell-Based Dose Response to Identify Activators of 5'UTR Stem-Loop Driven Prion Protein mRNA Translation in H4-C Neuroglioblastoma Cells. [Related pubchem assays: 1829 (Project Summary), 1814 (Primary HTS)]; format: functional
[4] = Luminescence Cell-Based Dose Response HTS to Identify Activators of Luciferase Translation or Activity in H4 […] Cells. [Related pubchem assays: 1829 (Project Summary), 1814 (Primary HTS)]; format: functional
[5] = Luminescence Cell-Based Dose Response to Identify Activators of Luciferase Translation or Activity in H4-C Neuroglioblastoma Cells. [Related pubchem assays: 1829 (Project Summary), 1814 (Primary HTS)]; format: functional
[6] = Luminescence Cell-Based Dose Confirmation to Identify Activators of 5'UTR Stem-Loop Driven Alpha-Synuclein mRNA Translation in H4 Neuroglioblastoma Cells. [Related pubchem assays: 1829 (Project Summary), 1814 (Primary HTS)]; format: functional
H4 = experiment: Luminescence Cell-Based Dose Response HTS to Identify Activators of 5'UTR Stem-Loop Driven Prion Protein mRNA Translation in H4 Neuroglioblastoma Cells. [Related pubchem assays: 1829 (Project Summary), 1814 (Primary HTS)]; format: functional; conditions: Homo sapiens
[7] = biological target: T1, Histone-lysine N-methyltransferase NSD2 (Homo sapiens, UniProt O96028); format: biochemical
T1 sequence (O96028 whole entry): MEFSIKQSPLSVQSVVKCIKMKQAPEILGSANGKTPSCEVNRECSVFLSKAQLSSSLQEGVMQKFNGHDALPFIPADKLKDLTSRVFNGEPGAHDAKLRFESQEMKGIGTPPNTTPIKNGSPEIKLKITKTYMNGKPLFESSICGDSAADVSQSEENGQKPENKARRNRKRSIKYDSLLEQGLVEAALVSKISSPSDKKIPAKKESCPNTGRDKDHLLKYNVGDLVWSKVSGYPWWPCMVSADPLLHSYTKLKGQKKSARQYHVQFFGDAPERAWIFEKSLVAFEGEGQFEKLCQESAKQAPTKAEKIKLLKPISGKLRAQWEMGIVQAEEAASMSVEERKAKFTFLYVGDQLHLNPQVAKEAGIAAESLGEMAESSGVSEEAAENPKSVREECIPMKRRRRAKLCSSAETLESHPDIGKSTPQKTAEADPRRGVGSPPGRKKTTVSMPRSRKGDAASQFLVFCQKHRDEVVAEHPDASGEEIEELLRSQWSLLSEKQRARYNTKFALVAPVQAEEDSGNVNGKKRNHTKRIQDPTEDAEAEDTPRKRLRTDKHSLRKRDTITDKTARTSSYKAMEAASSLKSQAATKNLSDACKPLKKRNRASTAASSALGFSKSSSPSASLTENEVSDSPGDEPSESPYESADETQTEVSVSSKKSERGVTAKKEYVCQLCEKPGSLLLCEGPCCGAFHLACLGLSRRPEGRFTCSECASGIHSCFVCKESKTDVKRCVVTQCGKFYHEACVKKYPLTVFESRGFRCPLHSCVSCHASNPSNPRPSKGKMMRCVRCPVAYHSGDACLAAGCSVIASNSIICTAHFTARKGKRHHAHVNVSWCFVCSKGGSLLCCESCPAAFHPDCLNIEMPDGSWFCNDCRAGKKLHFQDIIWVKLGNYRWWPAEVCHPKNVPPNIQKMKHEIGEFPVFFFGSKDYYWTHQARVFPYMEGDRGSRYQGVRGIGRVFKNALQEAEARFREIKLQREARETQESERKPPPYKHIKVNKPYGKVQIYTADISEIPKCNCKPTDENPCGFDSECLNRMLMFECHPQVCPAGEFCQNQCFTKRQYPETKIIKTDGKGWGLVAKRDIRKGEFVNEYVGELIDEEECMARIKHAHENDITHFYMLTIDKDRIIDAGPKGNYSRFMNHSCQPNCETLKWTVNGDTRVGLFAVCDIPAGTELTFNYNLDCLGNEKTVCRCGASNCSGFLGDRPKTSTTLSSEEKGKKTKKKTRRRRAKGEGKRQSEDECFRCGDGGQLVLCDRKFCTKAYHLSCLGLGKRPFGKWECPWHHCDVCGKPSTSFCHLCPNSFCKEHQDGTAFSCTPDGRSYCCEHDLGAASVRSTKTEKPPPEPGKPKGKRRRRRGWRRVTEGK

[8] = biological target: T2, RNA-binding protein pos-1 (Caenorhabditis elegans, UniProt G5EF15); experiment: disruptors of C. elegans POS-1 RNA interaction – biochemical, fluorescence polarization, dose response (AID 1964);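 note: purified POS-1 fused to maltose binding protein made in E. coli; potency of compounds blocking POS-1 binding to fluorescent RNA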
T2 sequence (G5EF15 whole entry): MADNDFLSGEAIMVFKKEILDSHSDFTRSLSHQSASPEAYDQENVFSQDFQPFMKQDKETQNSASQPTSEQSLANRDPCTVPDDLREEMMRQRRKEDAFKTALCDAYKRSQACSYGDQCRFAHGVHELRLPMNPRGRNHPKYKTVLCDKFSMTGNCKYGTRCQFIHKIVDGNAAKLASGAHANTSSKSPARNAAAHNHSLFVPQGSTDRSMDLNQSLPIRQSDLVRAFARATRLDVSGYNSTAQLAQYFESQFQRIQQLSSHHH

[9] = biological target: T3, Zinc finger protein mex-5 (Caenorhabditis elegans, UniProt Q9XUB2); experiment: potency of MEX-5 RNA-binding blockers – biochemical, C. elegans, fluorescence polarization, dose response (AID 1960)
T3 sequence (Q9XUB2 whole entry): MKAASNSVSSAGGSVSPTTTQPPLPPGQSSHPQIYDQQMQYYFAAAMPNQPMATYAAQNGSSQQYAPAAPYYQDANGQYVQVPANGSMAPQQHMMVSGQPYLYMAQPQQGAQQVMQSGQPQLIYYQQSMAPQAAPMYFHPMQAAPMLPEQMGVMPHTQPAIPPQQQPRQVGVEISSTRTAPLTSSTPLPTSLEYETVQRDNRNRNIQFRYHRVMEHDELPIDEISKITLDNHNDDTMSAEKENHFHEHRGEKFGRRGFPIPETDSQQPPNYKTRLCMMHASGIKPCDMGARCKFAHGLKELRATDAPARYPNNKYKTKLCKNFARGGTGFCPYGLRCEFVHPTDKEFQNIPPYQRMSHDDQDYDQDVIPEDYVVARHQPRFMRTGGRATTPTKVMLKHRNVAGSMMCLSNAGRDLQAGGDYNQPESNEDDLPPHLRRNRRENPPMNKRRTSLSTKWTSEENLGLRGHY

Kallikrein-7 = Kallikrein-7 (Homo sapiens, UniProt P49862); experiment: Fluorescence Intensity-based biochemical primary high throughput dose response assay to identify activators of kallikrein-7 (K7) zymogen.
Chain of Kallikrein-7 (P49862 whole entry): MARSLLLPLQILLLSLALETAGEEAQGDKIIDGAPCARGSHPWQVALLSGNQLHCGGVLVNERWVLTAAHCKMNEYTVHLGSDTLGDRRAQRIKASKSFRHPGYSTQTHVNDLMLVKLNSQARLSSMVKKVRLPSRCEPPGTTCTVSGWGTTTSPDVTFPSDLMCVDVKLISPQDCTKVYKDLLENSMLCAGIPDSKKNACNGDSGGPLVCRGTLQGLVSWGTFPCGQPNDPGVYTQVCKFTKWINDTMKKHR

[10] = HIV-1 Vif–A3G interaction blockers – biochemical, TR-FRET, GST-Vif 1-94, biotin-A3G peptide, dose response retest, primary screen (AID 1117319); format: functional;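 note: TR-FRET signal of purified GST-Vif binding a biotinylated A3G peptide; inhibitors lower the FRET signal by blocking Vif and A3G binding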
[11] = viability loss in THP-1 monocytes – THP-1 cells, cytotoxicity control for Vif-APOBEC3G degradation inhibitor project, dose response (AID 1117359); format: functional; conditions: THP-1
Vero = experiment: viability of Vero cells under compound – cytotoxicity control for flavivirus capping enzyme inhibitors (AID 588742); format: functional; conditions: Chlorocebus sabaeus
[12] = blockers of bursicon-stimulated LGR2 cAMP reporter – cell-based, HEK293, CRE-luciferase reporter, cherry pick, set 2, dose response (AID 743343); format: functional;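 note: transfected cells were stimulated with diluted bursicon conditioned medium after compound addition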
[13] = A549 cell cytotoxicity, dose response, cytotoxicity control, plate reader, cherry-pick, antagonist series (AID 743412); format: functional, cell-based
[14] = blockade of melanocortin 4 receptor signaling – cell-based, plate reader, cherry pick, counter-screen for LGR2 antagonist project, dose response (AID 743444); format: functional;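 note: transfected HEK 293 cells stimulated with alpha-MSH peptide; potency of inhibitors of the alpha-MSH evoked signal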
HEK293 = experiment: viability loss in HEK293T cells – cell-based, ATP luminescence, cherry-pick samples, cytotoxicity control, dose response (AID 687005); format: functional; conditions: Homo sapiens;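 note: cells exposed to compound for 48 hours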
[15] = HEK293 Cytotoxicity Assay Measured in Cell-Based System Using Plate Reader - 7071-01_Inhibitor_Dose_CherryPick_Activity_Set2.; format: functional
[16] = blockers of HIV-1 envelope-mediated cell-cell fusion – cherry-pick, dose response (AID 652057); format: functional, cell-based
[17] = HIV-1 AD8 envelope cell-cell fusion blockers – cherry-pick, dose response (AID 652062); format: functional, cell-based;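 note: luciferase signal from cell-cell fusion driven by HIV-1 clade B AD8 Env; potency is for inhibitors of fusion seen as a drop in luminescence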
Paired box protein Pax-8 = Paired box protein Pax-8 (Homo sapiens, UniProt Q06710); experiment: PAX8 transcriptional activity inhibition in RMG-I – RMG-I cells, luciferase, cherry-pick, dose response (AID 687027); format: functional, cell-based;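 note: luciferase reporter driven by Pax8 target thyroperoxidase promoter measured by SteadyGlo luminescence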
Chain of Paired box protein Pax-8 (Q06710 whole entry): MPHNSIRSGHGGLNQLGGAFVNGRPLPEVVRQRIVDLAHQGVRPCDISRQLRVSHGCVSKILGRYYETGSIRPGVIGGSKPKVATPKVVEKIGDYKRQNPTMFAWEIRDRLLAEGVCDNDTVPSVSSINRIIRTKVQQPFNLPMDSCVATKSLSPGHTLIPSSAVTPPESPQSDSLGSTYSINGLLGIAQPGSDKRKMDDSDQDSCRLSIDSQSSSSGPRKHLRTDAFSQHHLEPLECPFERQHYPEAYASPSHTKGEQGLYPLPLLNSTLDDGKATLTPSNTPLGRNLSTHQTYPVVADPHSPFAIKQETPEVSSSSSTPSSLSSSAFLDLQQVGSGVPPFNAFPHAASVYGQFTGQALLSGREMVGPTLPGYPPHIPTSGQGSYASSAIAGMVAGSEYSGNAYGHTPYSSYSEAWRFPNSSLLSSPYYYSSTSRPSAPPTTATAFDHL

[18] = OVCAR8 cell viability loss – plate reader, dry powder samples, PAX8 project, dose response (AID 743197); format: functional, cell-based; conditions: OVCAR-8
[19] = OVCAR-3 cell viability loss – plate reader, dry powder samples, PAX8 inhibitor project, dose response (AID 743044); format: functional, cell-based
Cytochrome P450 2D6 = Cytochrome P450 2D6 (Homo sapiens, UniProt P10635);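 note: CYP2D6 member of a cytochrome P450 panel assay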
Chain of Cytochrome P450 2D6 (P10635 whole entry): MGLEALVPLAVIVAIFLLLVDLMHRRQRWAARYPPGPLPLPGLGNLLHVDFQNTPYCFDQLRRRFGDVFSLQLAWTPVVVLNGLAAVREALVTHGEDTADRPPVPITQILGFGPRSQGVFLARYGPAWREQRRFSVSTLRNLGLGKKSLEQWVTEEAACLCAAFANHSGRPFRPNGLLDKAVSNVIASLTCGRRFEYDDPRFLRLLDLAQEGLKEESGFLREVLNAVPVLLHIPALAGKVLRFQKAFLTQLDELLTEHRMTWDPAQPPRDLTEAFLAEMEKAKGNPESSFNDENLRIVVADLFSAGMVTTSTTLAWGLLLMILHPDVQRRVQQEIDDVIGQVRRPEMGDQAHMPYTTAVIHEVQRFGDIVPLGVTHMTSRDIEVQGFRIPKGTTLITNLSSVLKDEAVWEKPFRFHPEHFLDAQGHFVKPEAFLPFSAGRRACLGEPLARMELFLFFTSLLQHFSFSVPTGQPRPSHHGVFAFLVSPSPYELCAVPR

Cytochrome P450 2C9 = Cytochrome P450 2C9 (Homo sapiens, UniProt P11712)
Chain of Cytochrome P450 2C9 (P11712 whole entry, the tested form may be a part): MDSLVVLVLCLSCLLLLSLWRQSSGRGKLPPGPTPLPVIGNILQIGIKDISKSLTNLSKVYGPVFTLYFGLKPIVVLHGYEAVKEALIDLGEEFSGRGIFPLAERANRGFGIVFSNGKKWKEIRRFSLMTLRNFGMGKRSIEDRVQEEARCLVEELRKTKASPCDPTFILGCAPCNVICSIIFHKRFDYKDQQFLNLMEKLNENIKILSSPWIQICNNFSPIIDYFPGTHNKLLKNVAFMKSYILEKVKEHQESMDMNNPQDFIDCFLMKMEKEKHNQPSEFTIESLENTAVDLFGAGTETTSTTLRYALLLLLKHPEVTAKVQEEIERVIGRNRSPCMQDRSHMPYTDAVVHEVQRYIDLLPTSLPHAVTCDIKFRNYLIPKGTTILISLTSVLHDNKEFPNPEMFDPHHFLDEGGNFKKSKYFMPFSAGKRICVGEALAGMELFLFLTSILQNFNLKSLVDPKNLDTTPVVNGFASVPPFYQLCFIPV

[20] = biological target: Disintegrin and metalloproteinase domain-containing protein 17 (Homo sapiens, UniProt P78536); experiment: inhibition of ADAM17 substrate cleavage – biochemical, quenched FRET substrate, counter-screen for ADAM10 exosite inhibitor project, dose response (AID 743253)
Chain of Disintegrin and metalloproteinase domain-containing protein 17 (P78536 whole entry, the tested form may be a part): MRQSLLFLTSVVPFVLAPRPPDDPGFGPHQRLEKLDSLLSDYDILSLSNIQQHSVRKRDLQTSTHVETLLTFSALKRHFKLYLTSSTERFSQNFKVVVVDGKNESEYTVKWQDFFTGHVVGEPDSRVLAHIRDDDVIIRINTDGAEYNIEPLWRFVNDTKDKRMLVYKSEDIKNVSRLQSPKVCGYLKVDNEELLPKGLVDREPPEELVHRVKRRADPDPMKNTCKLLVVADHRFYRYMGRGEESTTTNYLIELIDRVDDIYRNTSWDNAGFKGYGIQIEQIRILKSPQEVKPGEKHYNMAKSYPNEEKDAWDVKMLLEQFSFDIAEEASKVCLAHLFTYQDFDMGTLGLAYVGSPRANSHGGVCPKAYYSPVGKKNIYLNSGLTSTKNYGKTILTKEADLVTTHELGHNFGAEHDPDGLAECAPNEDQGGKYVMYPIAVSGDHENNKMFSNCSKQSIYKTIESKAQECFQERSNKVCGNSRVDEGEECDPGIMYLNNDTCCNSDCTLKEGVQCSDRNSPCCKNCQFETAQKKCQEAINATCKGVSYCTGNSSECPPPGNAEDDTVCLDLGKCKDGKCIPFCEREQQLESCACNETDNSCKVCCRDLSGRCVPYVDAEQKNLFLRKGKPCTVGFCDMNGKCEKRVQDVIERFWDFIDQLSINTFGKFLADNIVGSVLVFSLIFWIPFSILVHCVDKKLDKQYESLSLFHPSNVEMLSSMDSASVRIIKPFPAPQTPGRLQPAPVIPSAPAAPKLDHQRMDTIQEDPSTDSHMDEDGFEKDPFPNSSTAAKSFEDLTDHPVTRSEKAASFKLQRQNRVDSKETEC

Chain of Protein-tyrosine kinase 2-beta (Q14289 whole entry): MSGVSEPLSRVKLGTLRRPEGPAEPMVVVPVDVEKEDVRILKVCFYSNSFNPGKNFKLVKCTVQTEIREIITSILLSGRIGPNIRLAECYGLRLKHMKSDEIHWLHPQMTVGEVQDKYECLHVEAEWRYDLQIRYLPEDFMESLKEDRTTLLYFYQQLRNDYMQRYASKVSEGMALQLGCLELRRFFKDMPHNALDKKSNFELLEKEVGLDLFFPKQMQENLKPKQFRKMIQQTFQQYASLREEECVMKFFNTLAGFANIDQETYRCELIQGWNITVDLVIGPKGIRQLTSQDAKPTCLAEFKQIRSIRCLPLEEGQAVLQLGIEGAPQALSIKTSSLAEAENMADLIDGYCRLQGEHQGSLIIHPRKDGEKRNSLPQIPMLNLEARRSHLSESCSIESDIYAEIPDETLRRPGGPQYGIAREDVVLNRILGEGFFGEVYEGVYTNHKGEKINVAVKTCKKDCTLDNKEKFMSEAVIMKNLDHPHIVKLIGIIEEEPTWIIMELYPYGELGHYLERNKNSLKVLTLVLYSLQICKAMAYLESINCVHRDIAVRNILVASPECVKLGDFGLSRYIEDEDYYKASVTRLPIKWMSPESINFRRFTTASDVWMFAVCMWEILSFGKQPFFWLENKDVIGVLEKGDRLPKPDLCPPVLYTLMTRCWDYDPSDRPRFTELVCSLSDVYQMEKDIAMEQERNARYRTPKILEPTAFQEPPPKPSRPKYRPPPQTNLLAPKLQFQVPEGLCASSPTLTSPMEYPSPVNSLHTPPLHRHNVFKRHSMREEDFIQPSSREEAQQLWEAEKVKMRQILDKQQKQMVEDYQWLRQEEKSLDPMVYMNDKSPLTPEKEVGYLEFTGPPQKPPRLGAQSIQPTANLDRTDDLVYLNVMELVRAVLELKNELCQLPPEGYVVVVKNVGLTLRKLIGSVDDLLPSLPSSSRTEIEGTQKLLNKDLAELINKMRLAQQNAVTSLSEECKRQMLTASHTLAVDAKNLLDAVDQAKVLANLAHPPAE

N#CCSc1nc(Nc2ccc3c(c2)OCO3)c2ccccc2n1
IC50 [1]: > 69.5 µM (not active)

CCc1cc2c(O)c(-c3ccon3)c(=N)oc2cc1OC
EC50 [2]: 7.6 µM (active) | EC50 [3]: > 12 µM (not active) | EC50 [4]: 6.58 µM (active) | EC50 [5]: 1.5 µM (active) | EC50 [6]: 0.591 µM (active) | EC50 (H4): 31.8 µM (active)

N#CC(C#N)=Cc1cccn1-c1ccc(C(=O)O)cc1
AC50 [7]: > 20 µM (inactive) | EC50 [8]: > 300 µM (not active) | EC50 [9]: 160 µM (active)

Cc1ccccc1-n1c2nc(=O)n(C)c(=O)c-2cc2ccccc21
EC50 (Kallikrein-7): 85.3 µM (inactive)

CCN1CCN(Cc2c(O)ccc3c2O/C(=C\c2ccc(C)cc2)C3=O)CC1
EC50 [8]: 38.9 µM (active) | EC50 (Kallikrein-7): 23.9 µM (inactive) | EC50 [9]: 111 µM (active)

Cc1ccc(CC(NC(=O)c2ccccc2)C(=O)NC(C)C(=O)O)cc1 (centres undefined)
IC50 [10]: > 100 µM (active)

CC(C)C1Oc2ccccc2C(=O)N(CC(=O)c2ccc3c(c2)OCCO3)C1=O (centres undefined)
EC50 [2]: 0.131 µM (active) | EC50 [3]: 0.33 µM (active) | EC50 [4]: < 0.1 µM (active) | EC50 [5]: 0.447 µM (active) | EC50 [6]: 0.425 µM (active) | EC50 (H4): < 0.1 µM (active)

O=[N+]([O-])c1ccc(CNc2ccc(F)cc2)s1
CC50 [11]: > 40 µM (active) | IC50 [10]: > 100 µM (active)

CNc1sc(C(=O)c2cccs2)c(N)c1-c1nc2ccccc2s1
CC50 [11]: 19.1 µM (active) | IC50 [10]: > 100 µM (active) | CC50 (Vero): > 40 µM (active)

CCOC(=O)C1=C(c2ccccc2)OC(N)=C(C#N)C1c1cccs1 (centres undefined)
IC50 [1]: > 69.5 µM (not active)

O=C(/C=C/c1cnc2ccccc2n1)NC12CC3CC(CC(C3)C1)C2
EC50 [3]: 0.434 µM (active) | EC50 [4]: < 0.1 µM (active) | EC50 [5]: 0.32 µM (active) | EC50 [6]: 0.62 µM (active) | EC50 (H4): 0.921 µM (active)

CC1(C)CC(=O)c2cnc(N3CCc4ccccc4C3)nc2C1
EC50 [3]: 0.284 µM (active) | EC50 [4]: < 0.1 µM (inconclusive) | EC50 [5]: 0.268 µM (active) | EC50 [6]: 0.283 µM (active)

Cc1ccccc1C(=O)Nc1ccc2c(c1)OCCO2
AC50 [12]: 10.5 µM (active) | AC50 [13]: > 52 µM (inactive) | AC50 [14]: 11.1 µM (active)

C[C@H](O)[C@@H]1C(=O)N2CCc3c([nH]c4ccccc34)[C@@H]2C[C@@H]1N(C)C(=O)c1cc(Cl)cc(Cl)c1
EC50 (Kallikrein-7): > 23.2 µM (inactive)

CNc1cncc(-c2ccc(OC)cc2)n1
EC50 (Kallikrein-7): > 69.5 µM (inactive)

COCCNC(=O)C[C@@H]1CC[C@H]2[C@@H](COC[C@H](O)CN2Cc2cccc(-c3ccncc3)c2)O1
AC50 (HEK293): 32.6 µM (active) | AC50 [15]: 32.6 µM (active)

C[C@H]1CCCCO[C@H](CN(C)Cc2ccncc2)[C@@H](C)CN([C@@H](C)CO)C(=O)c2cc(NC(=O)CCCN(C)C)ccc2O1
AC50 (HEK293): 38.1 µM (active) | AC50 [15]: 38.1 µM (active)

C[C@@H]1CN([C@@H](C)CO)S(=O)(=O)c2ccc(C3=CCCC3)cc2O[C@@H]1CN(C)Cc1ccccc1F
AC50 (HEK293): 23.9 µM (active) | AC50 [15]: 23.9 µM (active)

O=C(Nc1ccc(C(F)(F)F)cc1)Nc1ccc2c(c1)[C@@H]1C[C@H](CC(=O)N3CCc4ccccc4C3)O[C@H](CO)[C@@H]1O2
AC50 [16]: 14.2 µM (active) | AC50 [17]: 18.5 µM (active) | AC50 (Paired box protein Pax-8): 9.5 µM (active) | AC50 [18]: 48.6 µM (active) | AC50 [19]: 34.4 µM (active)

O=C(C[C@H]1CC[C@@H]2[C@H](COC[C@@H](O)CN2S(=O)(=O)c2cccc(Cl)c2)O1)Nc1ccc(-c2ccccc2)cc1
AC50 (Paired box protein Pax-8): 8.33 µM (active) | AC50 [18]: > 70 µM (inactive)

COc1cc(/C=N/O)cc(Br)c1OCc1ccc(Cl)cc1
AC50 (Cytochrome P450 2D6): 17.8 µM (inconclusive) | AC50 (Cytochrome P450 2C9): inconclusive | IC50 [20]: > 69.5 µM (inactive)

CCCCN1CCCCC1C(=O)Nc1c(C)cccc1C (centres undefined) [BUPIVACAINE]
AC50 (HEK293): 35.7 µM (active) | AC50 [15]: 35.7 µM (active)
